According to patent US9695155B2, “Herbicidal substituted pyrimidinyloxy benzene compounds” (E. I. DU PONT DE NEMOURS AND COMPANY, priority 2013, dated 2017):

Columns and labels:
waterhemp = assay: Test C preemergence; assay type: in vivo, Amaranthus rudis; conditions: for Waterhemp plant response rating: preemergence, scale 0 (no effect) to 100 (complete control)
In short: (§1)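 Sown in loam/sand → sprayed pre-emergence; or grown to 1–4 leaves in peat mix → sprayed post-emergence. Same solvent/surfactant formulation both ways. Greenhouse 13–15 d. Score 0–100 visual.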

barnyardgrass [1] = assay: Test A postemergence; assay type: in vivo, Echinochloa crus-galli
In short: (§2)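 Greenhouse pot test, loam/sand soil. Formulation: non-phytotoxic solvent mix plus surfactant. Pre: directed spray onto soil after sowing. Post: plants at 1–2 leaf, 2–10 cm. Rated visually vs untreated controls at ~10 d, 0 (no effect) to 100 (complete control).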

barnyardgrass [2] = assay: Test C preemergence; assay type: in vivo, Echinochloa crus-galli; conditions: for Barnyardgrass plant response rating: preemergence, scale 0 (no effect) to 100 (complete control)
In short: as §1

morningglory = assay: Test C preemergence; assay type: in vivo, Ipomoea coccinea; conditions: for Morningglory plant response rating: preemergence, scale 0 (no effect) to 100 (complete control)
In short: as §1

oilseed rape = assay: Test C preemergence; assay type: in vivo, Brassica napus; conditions: for Oilseed Rape plant response rating: preemergence, scale 0 (no effect) to 100 (complete control)
In short: as §1

barnyardgrass [3] = assay: Test B flooded paddy test; assay type: in vivo, Echinochloa crus-galli; conditions: Flood, 250 g ai/ha; 0 to 100 scale where 0 is no effect and 100 is complete control
In short: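 Greenhouse flooded-pot test: compounds dosed into 3 cm standing water over 2-leaf plants, flood held constant. Rated visually after 13–15 days on 0–100 (complete control = 100); a dash marks no test result.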

soybean [4] = assay: Test C preemergence; assay type: in vivo, Glycine max; conditions: preemergence, scale 0 (no effect) to 100 (complete control)
In short: as §1

pigweed = assay: Test A postemergence; assay type: in vivo, Amaranthus retroflexus; conditions: 0 to 100 scale where 0 is no effect and 100 is complete control
In short: as §2

galium [5] = assay: Test C preemergence; assay type: in vivo, Galium aparine; conditions: for Galium plant response rating: preemergence, scale 0 (no effect) to 100 (complete control)
In short: as §1

velvetleaf = assay: Test C postemergence; assay type: in vivo, Abutilon theophrasti; conditions: for Plant response rating (0 to 100), Velvetleaf: postemergence; for Plant response rating, Velvetleaf: Postemergence, scale 0 to 100 (0 no effect, 100 complete control)
In short: as §1

giant foxtail = assay: Test A preemergence; assay type: in vivo, Setaria faberii
In short: as §2

johnsongrass = assay: Test C postemergence; assay type: in vivo, Sorghum halepense; conditions: for Plant response rating (0 to 100), Johnsongrass: postemergence; for Plant response rating, Johnsongrass: Postemergence, scale 0 to 100 (0 no effect, 100 complete control)
In short: as §1

galium [6] = assay: Test C postemergence; assay type: in vivo, Galium aparine; conditions: for Plant response rating (0 to 100), Galium: postemergence; for Plant response rating, Galium: Postemergence, scale 0 to 100 (0 no effect, 100 complete control)
In short: as §1

soybean [7] = assay: Test C postemergence; assay type: in vivo, Glycine max; conditions: for Plant response rating (0 to 100), Soybean: postemergence; for Plant response rating, Soybean: Postemergence, scale 0 to 100 (0 no effect, 100 complete control)
In short: as §1

chickweed = assay: Test C postemergence; assay type: in vivo, Stellaria media; conditions: for Plant response rating (0 to 100), Chickweed: postemergence; for Plant response rating, Chickweed: Postemergence, scale 0 to 100 (0 no effect, 100 complete control)
In short: as §1

[8] = Preemergence, 31 g ai/ha, scale 0 to 100, 0 no effect, 100 complete control
[9] = 125 g ai/ha, 0 to 100 scale where 0 is no effect and 100 is complete control

## N#Cc1cccc(Oc2ncc(F)cn2)c1-n1cc(Cl)cn1 [Compound 73]
waterhemp; 62 g ai/ha
  Waterhemp plant response rating: 100
waterhemp; 125 g ai/ha
  Waterhemp plant response rating: 100
waterhemp; 250 g ai/ha
  Waterhemp plant response rating: 100
waterhemp; [8]
  Plant response rating, Waterhemp: 100
Barnyardgrass [1]; [9]
  Plant response rating, Barnyardgrass: 90
Barnyardgrass [1]; 500 g ai/ha, 0 to 100 scale, 0 no effect, 100 complete control
  Plant response rating, Barnyardgrass: 90
Barnyardgrass [2]; 62 g ai/ha
  Barnyardgrass plant response rating: 80
Barnyardgrass [2]; 125 g ai/ha
  Barnyardgrass plant response rating: 100
Barnyardgrass [2]; 250 g ai/ha
  Barnyardgrass plant response rating: 100
Barnyardgrass [2]; [8]
  Plant response rating, Barnyardgrass: 60
morningglory; 62 g ai/ha
  Morningglory plant response rating: 45
morningglory; 125 g ai/ha
  Morningglory plant response rating: 95
morningglory; 250 g ai/ha
  Morningglory plant response rating: 98
morningglory; [8]
  Plant response rating, Morningglory: 45
Oilseed rape; 62 g ai/ha
  Oilseed Rape plant response rating: 95
Oilseed rape; 125 g ai/ha
  Oilseed Rape plant response rating: 100
Oilseed rape; 250 g ai/ha
  Oilseed Rape plant response rating: 100
Oilseed rape; [8]
  Plant response rating, Oilseed Rape: 85
Barnyardgrass [3]
  Plant response rating, Barnyardgrass: 0
Soybean [4]; 62 g ai/ha
  Soybean plant response rating: 60
Soybean [4]; 125 g ai/ha
  Soybean plant response rating: 75
Soybean [4]; 250 g ai/ha
  Soybean plant response rating: 90
pigweed; 125 g ai/ha
  Plant response rating, Pigweed: 100
pigweed; 500 g ai/ha
  Plant response rating, Pigweed: 100
Galium [5]; 62 g ai/ha
  Galium plant response rating: 90
Galium [5]; 125 g ai/ha
  Galium plant response rating: 90
Galium [5]; 250 g ai/ha
  Galium plant response rating: 95
Galium [5]; [8]
  Plant response rating, Galium: 85
velvetleaf; 125 g ai/ha
  Plant response rating (0 to 100), Velvetleaf: 50
velvetleaf; 250 g ai/ha
  Plant response rating (0 to 100), Velvetleaf: 70
velvetleaf; 31 g ai/ha, 13 to 15 days
  Plant response rating, Velvetleaf: 30
velvetleaf; 62 g ai/ha
  Plant response rating, Velvetleaf: 30
Giant foxtail; [9]
  Plant response rating, Foxtail, Giant: 100
Giant foxtail; 500 g ai/ha, 0 to 100 scale, 0 no effect, 100 complete control, approx. 10 days
  Foxtail, Giant plant response rating: 100
johnsongrass; 125 g ai/ha
  Plant response rating (0 to 100), Johnsongrass: 5
johnsongrass; 250 g ai/ha
  Plant response rating (0 to 100), Johnsongrass: 25
johnsongrass; 31 g ai/ha, 13 to 15 days
  Plant response rating, Johnsongrass: 0
johnsongrass; 62 g ai/ha
  Plant response rating, Johnsongrass: 5
Galium [6]; 125 g ai/ha
  Plant response rating (0 to 100), Galium: 70
Galium [6]; 250 g ai/ha
  Plant response rating (0 to 100), Galium: 70
Galium [6]; 31 g ai/ha, 13 to 15 days
  Plant response rating, Galium: 40
Galium [6]; 62 g ai/ha
  Plant response rating, Galium: 55
Soybean [7]; 125 g ai/ha
  Plant response rating (0 to 100), Soybean: 80
Soybean [7]; 250 g ai/ha
  Plant response rating (0 to 100), Soybean: 90
Soybean [7]; 31 g ai/ha, 13 to 15 days
  Plant response rating, Soybean: 40
Soybean [7]; 62 g ai/ha
  Plant response rating, Soybean: 70
chickweed; 125 g ai/ha
  Plant response rating (0 to 100), Chickweed: 50
chickweed; 250 g ai/ha
  Plant response rating (0 to 100), Chickweed: 80
chickweed; 31 g ai/ha, 13 to 15 days
  Plant response rating, Chickweed: 50
chickweed; 62 g ai/ha
  Plant response rating, Chickweed: 50
